Laboratory results taken from PubChem BioAssay (NCI).
Values joined by “and” are separate entries in the source; they are usually repeats but may differ in a detail not shown here. Equal entries are not always repeated.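 Exposure lasted 48 hours, with cells grown in 96-well plates and compounds tested at five concentrations. GI50: concentration for 50% inhibition of growth. TGI marks complete inhibition of growth.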

Assays:
Assay in all cases: NCI anticancer screen, dose series, 48 h
XF 498 CNS = tested on: XF 498 CNS
DMS 273 small cell lung = tested on: DMS 273 small cell lung
LXFL 529 NSCLC = tested on: LXFL 529 NSCLC
RXF-631 renal = tested on: RXF-631 renal
KM20L2 colon = tested on: KM20L2 colon
M19-MEL melanoma = tested on: M19-MEL melanoma
DMS 114 small cell lung = tested on: DMS 114 small cell lung
HOP-18 NSCLC = tested on: HOP-18 NSCLC
MDA-N = tested on: MDA-N

Structure (SMILES) | TGI (XF 498 CNS) [µM] | TGI (DMS 273 small cell lung) [µM] | TGI (LXFL 529 NSCLC) | TGI (RXF-631 renal) | TGI (KM20L2 colon) [µM] | TGI (M19-MEL melanoma) | TGI (DMS 114 small cell lung) [µM] | TGI (HOP-18 NSCLC) [µM] | GI50 (MDA-N) [µM] | TGI (MDA-N) | GI50 (DMS 273 small cell lung) [µM] | GI50 (M19-MEL melanoma) [µM] | GI50 (HOP-18 NSCLC) [µM] | GI50 (LXFL 529 NSCLC) [µM] | GI50 (RXF-631 renal) [µM] | GI50 (XF 498 CNS) [µM] | GI50 (KM20L2 colon) [µM]
COc1cccc(/C=C/C(=O)c2sc(C(N)=S)nc2C)c1O | > 100 | > 91.3 | > 50.1 µM | > 100 µM | > 100 | > 100 µM | > 100 | > 100 |  |  |  |  |  |  |  |  | 
Cc1ccc(S(=O)(=O)N2CCN(C=S)CC2)cc1 |  | > 100 | > 100 µM | > 100 µM | > 100 | > 100 µM | > 100 | > 100 |  |  |  |  |  |  |  |  | 
COCCOC1=CC(=O)c2c(O)ccc(O)c2C1=O |  |  |  |  |  |  |  |  | 0.359 | 0.341 µM and 1.13 µM |  |  |  |  |  |  | 
CN(C)CCC(CCN(C)C)=NO |  | > 100 | > 100 µM | > 100 µM | > 100 | > 100 µM | > 100 | > 100 |  |  |  |  |  |  |  |  | 
CC(=O)O[C@H]1CCN2C(=O)C=CC(OCc3ccccc3)C12 (some centres not stated) | > 100 | > 100 | > 100 µM |  | > 100 | > 100 µM | > 100 | > 100 |  |  |  |  |  |  |  |  | 
CCOC(=O)C(CCC(N)=O)(CCC(=O)OC)C(=O)OCC | > 100 | > 100 | > 100 µM |  | > 100 | > 100 µM | > 100 | > 100 |  |  |  |  |  |  |  |  | 
CCOc1ccc(/C=C/c2cc(OC)c(OC)c(OC)c2)cc1 | > 100 |  | 15.1 µM | > 38 µM | 6.81 | > 100 µM | 5.15 | > 100 |  |  |  |  |  |  |  |  | 
O=C1C(=C([O-])c2ccccc2)C(=O)c2ccccc21.O=C1C(=C([O-])c2ccccc2)C(=O)c2ccccc21.[Mn+2] |  | > 100 |  |  |  | > 100 µM |  | > 100 |  |  | 30.5 | > 100 | 35.4 |  |  |  | 
COc1cc(/C=C2\CCC/C(=C\c3ccc(O)c(OC)c3)C2=O)ccc1O | 16.8 | 3.07 | 4.22 µM |  | 28.7 | 3.9 µM | 4.48 | 9.21 |  | 12.5 µM |  |  |  |  |  |  | 
OCC[N+]12CCCN1CCC2 |  | > 100 | > 100 µM |  | > 100 | > 100 µM | > 100 | > 100 |  |  |  |  |  |  |  |  | 
c1ccncc1 |  | > 100 | > 100 µM |  | > 100 |  |  |  |  |  |  |  |  |  |  |  | 
O=[N+]([O-])c1ccc(C(Cl)C(Cl)c2ccc(C(Cl)C(Cl)c3ccc([N+](=O)[O-])cc3[N+](=O)[O-])cc2)c([N+](=O)[O-])c1 (configuration not stated) | 0.389 | 6.71 | 1.9 µM and 0.377 µM | 8.92 µM and 1.26 µM | 2.28 | 3.15 µM and 0.749 µM | 3.59 |  |  |  |  | 0.256 |  | 0.179 | 0.336 |  | 
CC1=NN(C(=O)Nc2ccc(Cl)cc2)C(=O)C2CCC(=O)N12 (configuration not stated) | > 100 | > 100 | > 100 µM |  | > 100 | > 100 µM | > 100 |  |  |  |  |  |  |  |  |  | 
Oc1ccc2ccccc2c1N=Nc1cc(Cl)ccc1Cl |  |  |  |  |  |  |  |  |  | > 50 µM |  |  |  |  |  |  | 
Cc1ccc(/C=C(\NC(=O)c2ccccc2)c2nc3ccccc3[nH]2)cc1 |  |  | > 100 µM |  | > 100 | > 100 µM | > 100 | > 100 |  |  |  |  |  |  |  |  | 
NC1CCCCC1N.O=C1C=C/C(=C(/c2ccc(O)c(Br)c2)c2ccccc2S(=O)(=O)[O-])C=C1Br.O=C1C=C/C(=C(/c2ccc(O)c(Br)c2)c2ccccc2S(=O)(=O)[O-])C=C1Br.[Pt+4] | 0.927 | 29.2 | > 100 µM |  | > 100 | 32.2 µM |  | > 100 |  |  | 0.813 | 0.539 | 7.95 | 4.43 |  | 0.112 | 0.755
